Data on one compound can be found in patent US9926293B2, “Multivalent RAS binding compounds” (THE TRUSTEES OF COLUMBIA UNIVERSITY IN THE CITY OF NEW YORK, priority 2014, dated 2018).

In one experiment the target is T1, KRAS^G12D D38A (Homo sapiens, UniProt P01116, D38A/G12D).
T1 construct: His6 (N); made in house
As to the kind of experiment: Microscale thermophoresis on binding-site mutant KRAS^G12D D38A. How it is done:
(§1) Mutagenesis of the KRAS^G12D plasmid was performed using a QuikChange XL site-directed mutagenesis kit from Agilent technologies, according to the manufacturer's protocol. Primers were designed using the Agilent QuikChange Primer Design application and purchased from Integrated DNA Technologies. KRAS^G12D D38A forward primer 5′ ATATGATCCAACAATAGAGGCTTCCTACAGGAAGCAAGTAG 3′ (SEQ ID NO: 66), KRAS^G12D D38A reverse primer 5′ CTACTTGCTTCCTGTAGGAAGCCTCTATTGTTGGATCATAT 3′ (SEQ ID NO: 67), KRAS^G12D I36N forward primer 5′ CATTTTGTGGACGAATATGATCCAACAAATGAGGATTCCTACAGG 3′ (SEQ ID NO: 68), KRAS^G12D I36N reverse primer 5′ CCTGTAGGAATCCTCATTTGTTGGATCATATTCGTCCACAAAATG 3′ (SEQ ID NO: 69). DNA sequencing was performed to confirm the correct amino acid sequence of the construct (GeneWiz, Inc.).
(§2) KRAS^G12D (250 μM) in 25 mM HEPES, 100 mM sodium chloride, 2 mM TCEP with 20 mM EDTA and 1 mM GppNHp was shaken at 220 rpm at 30° C. to remove the endogenous nucleotide, The solution was placed on ice for 2 minutes prior to the addition of 65 mM MgCl2. After an additional 10 minutes incubation on ice, 200 uL of a 10 uM solution of KRAS^G12D was combined with 200 uL of a 20 uM solution of NT-647-NHS-ester dye (from a 652.4 μM stock). The protein/dye mixture was rotated at 4° C. for 30 minutes, before being separated from the excess dye and buffer exchanged into 25 mM Tris, 100 mM sodium chloride, 2 mM TCEP, and 5 mM MgCl2 via a nap-5 column. The test compounds were arrayed across a 16-point dilution series consisting of 1.5% DMSO with 25 mM Tris, 100 mM NaCl, 2 mM TCEP, 5 mM MgCl2 and 0.05% tween-20. Thermophoretic movement of the fluorescently labeled protein with the inhibitors was performed using a Monolith NT.115 (Nanotemper Technologies). RALA and RHOA were purchased commercially from Abcam (RALA CN:ab102555, RHOA CN:ab101594).
(§3) A set of 45 of the closest matches (ranging from 0.85-0.97 Tanimoto coefficient) were synthesized (based on Scheme 2 with appropriate modifications) and tested for their ability to bind to KRAS^G12D by differential scanning fluorimetry.

The target of another experiment is T2, GTP-loaded KRAS G12D (Homo sapiens, UniProt P01116, G12D).
T2 construct: made in house; host or cells: Escherichia coli BL21-Gold (DE3)
In words: Microscale thermophoresis, GTP-loaded KRAS G12D labeled with NT-647-maleimide. The experiment is classed as binding. The conditions noted are these: read-out: dissociation constant KD. How it is done:
Microscale Thermophoresis
as §2, with “After an additional 10 minutes incubation on ice, 200 uL of a 10 uM solution of KRAS^G12D was combined with 200 uL of a 20 uM solution of NT-647-NHS-ester dye (from a 652.4 μM stock).” left out
as §3
Background: Microscale thermophoresis detects binding through changes in fluorescence in a small temperature gradient.

A further experiment addresses T3, GppNHp-bound KRAS^G12D (Homo sapiens, UniProt P01116, G12D).
T3 construct: made in house; host or cells: Escherichia coli BL21-Gold (DE3)
In words: Binding to KRAS and measurement of dissociation constants (FIG. 4B-4C), GppNHp-bound. The conditions noted are these: read-out: dissociation constant KD.

The next experiment addresses T4, KRAS^G12D I36N (Homo sapiens, UniProt P01116, G12D/I36N).
T4 construct: His6 (N); made in house
In words: Microscale thermophoresis on binding-site mutant KRAS^G12D I36N. To be noted: MST, 31MEW79 experiment of b434. How it is done: as §1
as §2, with “CN:ab101594). […]” for “CN:ab101594).”

The target in another experiment is T5, GDP-bound KRAS^G12D (Homo sapiens, UniProt P01116, G12D).
T5 construct: made in house; host or cells: Escherichia coli BL21-Gold (DE3)
As to the kind of experiment: Binding to KRAS and measurement of dissociation constants (FIG. 4B-4C), GDP-bound. The conditions noted are these: read-out: dissociation constant KD.

The target in experiment [1] is T6, GTP-loaded KRAS^G12D / CRAF RBD interaction (Homo sapiens, UniProt P01116, G12D).
T6 construct: made in house; host or cells: Escherichia coli BL21-Gold (DE3)
In words: In vitro RAS pulldown with CRAF RBD. It is filed as biochemical. The conditions noted are these: in vitro pull-down. How it is done: A 20 μM solution of KRAS^G12D in 50 mM HEPES, 200 mM sodium chloride, 2 mM TCEP with 1 mM EDTA and 1 mM GTP was gently rotated at 25° C. to remove the endogenous nucleotide. Magnesium chloride was then added to 5 mM and the resulting solution was rotated at 4° C. for 4 hours. The GTP-loaded KRAS^G12D was then diluted to 20 nM and incubated with the inhibitors and 5 μL of CRAF-RBD agarose beads (Millipore), 10 μL of RAF1-RBD agarose beads (EMD Millipore, CN: 14-278), or 100 nM RALGDS (Abcam, CN: ab132590) with 20 μL of glutathione beads for 2 hours. The beads were separated from the lysate via a 0.1 μm filter spin cup and centrifuging at 14,000-15,000 rpm. They were then washed twice with PBS before the addition of 1×SDS. The quantity of RAS in the samples was then analyzed using the previously described Western blotting procedure.
as §3

The next experiment deals with T7, KRAS^G12D⋅BODIPY-GTP (Homo sapiens, UniProt P01116, G12D).
T7 construct: made in house; host or cells: Escherichia coli BL21-Gold (DE3)
As to the kind of experiment: Nucleotide displacement assay with BODIPY-GTP (fluorescence polarization). The experiment is classed as binding. To be noted: 2.5 μM KRAS^G12D⋅BODIPY-GTP, 12 hours. The method, then: Nucleotide Displacement Assay
To investigate whether compounds were binding to the same site as GTP, a fluorescent polarization assay was implemented using fluorescently-labeled BODIPY-GTP as a probe. When BODIPY-GTP is free in solution, it has a low polarization. However, when BODIPY-GTP is bound to K-Ras protein, the polarization intensity is high. K-Ras G12D bound to BODIPY-GTP was incubated with different concentrations of ligand or unlabeled GTP or GDP in buffer containing 25 mM Tris-HCl, pH 8, 100 mM NaCl, 5 mM MgCl2, 1 mM EDTA, and 1 mM TCEP. The final concentration of K-Ras G12D bound to BODIPY-GTP in each well was 2.5 μM. The samples were incubated at 25° C. for 12 hours with gentle shaking to allow for the slow intrinsic nucleotide release reaction to take place. The change in fluorescence was measured on a Victor3 plate reader (Perkin Elmer) in 384-well black low-volume plates (Corning, Inc.). The BODIPY-GTP fluorophore was excited at 485 nm and emission was monitored at 535 nm.
Background: Fluorescence polarisation rises when a labelled molecule tumbles more slowly, as on binding a larger partner.

As usually defined, the Kd is the equilibrium constant for the complex coming apart. In turn, `NCCC[C@@H](NC(=O)CN1CCCNCC1)C(=O)NC1Cc2ccccc2C1` [Compound 31MEW79, (R)-2-(2-(1,4-diazepan-1-yl)ethanamido)-5-amino-N-(2,3-dihydro-1H-inden-2-yl)pentanamide] gave a loss in affinity at KRAS^G12D D38A (KRAS^G12D D38A and I36N vs KRAS^G12D) of 1.5 to 3.0 fold. The Kd at KRAS^G12D D38A (MST, 31MEW79 experiment of b434) was found to be 83 µM; at GTP-loaded KRAS G12D, 33 µM; at GppNHp-bound KRAS^G12D, 3.8 mM; at KRAS^G12D I36N, 47 µM; at GDP-bound KRAS^G12D, 7.1 mM. The “CRAF-bound KRAS^G12D” value in experiment [1] was “dose-dependent decrease”. For the same compound, on KRAS^G12D⋅BODIPY-GTP, the “displacement of BODIPY-GTP” value is on record as “No displacement”.
